Reference: patent US9150569B2, “Nitrogen-containing heterocyclic compound having inhibitory effect on production of kynurenine” (KYOWA HAKKO KIRIN CO., LTD., priority 2010, dated 2015)

These molecules were tested on production of kynurenine in KATO-III cells (assay: Inhibitory activity on the production of kynurenine (IFN-γ-treated KATO-III cells, kynurenine in the culture medium quantified by absorbance at 480 nm)). Details: test compound at 10 μmol/L, human gastric cancer cell line KATO-III, 96 hours, read-out: inhibition rate (production of kynurenine).
Assay type: cell-based
Description: This assay was performed by a modification of the method described in J. Biol. Chem., vol. 263, pp. 2041-2048 (1988). For culture of the human gastric cancer cell line KATO-III, RPMI 1640 (GIBCO, 11875) supplemented with 10 volt FBS (GIBCO, 10091-148, lot. 665285) was used. One μL of a test substance in a DMSO solution was diluted with 199 μL of the culture medium and placed in wells of a 384-well plate (10 μL/well). Next, IFN-γ (Sigma, 1-3265) was added to the culture medium to a concentration of 31.25 ng/mL, and KATO-III cells were suspended at 50,000 cells/mL in the culture medium. Forty μL of the suspension was added to each well (2,000 cells/well) and incubated under a 5% CO2 atmosphere at 37° C. for 96 hours. The final concentration of DMSO was limited to 0.1 volt or less so that DMSO itself may not affect the kynurenine concentration measured by this assay. After the incubation, 10 μL of a 30 w/vt aqueous trichloroacetic acid solution was added to each well, and incubation was performed at 65° C. for 30 minutes. The plate was centrifuged at 2,500×g for 5 minutes and 15μL of the supernatant in each well was transferred into another 384-well plate. To the transferred supernatant, 15 μL of a 2 w/vt solution of p-dimethylaminobenzaldehyde in acetic acid was added, incubation was performed at 65° C. for 20 minutes and the absorbance was measured at 480 nm.
Sample: the absorbance value of the well to which a DMSO solution containing a test substance was added and in which the cells were treated with IFN-γ.
Blank: the absorbance value of the well to which DMSO not containing a test substance was added and in which the cells were treated with IFN-γ.
Control: the absorbance value of the well to which DMSO not containing a test substance was added and in which the cells were not treated with IFN-γ.
In this assay, expression of IDO in KATO-III cells is induced by IFN-γ treatment and kynurenine in the culture medium is quantified. The kynurenine concentration in a culture medium is known to increase in proportion to the enzymatic activity of intracellular IDO (for example, J. Biol. Chem., vol. 263, pp. 2041-2048 ([…])). […] The production of kynurenine is known to be inhibited by IDO inhibitors (for example, J. Clin. Invest., vol. 117, No. 5, pp. 1147-1154 […]), and thus it is speculated that Compounds (I) also have an inhibitory effect on IDO.

SMILES	inhibition at 10 µM
CCCS(=O)(=O)Nc1nc2ccccc2nc1OC(c1ccncc1)C(F)(F)F (stereo not shown) [Compound 42, N-(3-(2,2,2-trifluoro-1-(pyridin-4-yl)ethoxy)quinoxalin-2-yl)propane-1-sulfonamide]	≥ 80%
CCCS(=O)(=O)Nc1nc2ccccc2nc1OC(c1cc[n+]([O-])cc1)C(F)(F)F (stereo not shown) [Compound 43, 4-(2,2,2-trifluoro-1-(3-(propylsulfonamido)quinoxalin-2-yloxy)ethyl)pyridine 1-oxide]	≥ 80%
CCCS(=O)(=O)Nc1nc2ccccc2nc1OC(c1ccnc(C#N)c1)C(F)(F)F (stereo not shown) [Compound 44, N-(3-(1-(2-cyanopyridin-4-yl)-2,2,2-trifluoroethoxy)quinoxalin-2-yl)propane-1-sulfonamide]	≥ 80%
CCCS(=O)(=O)Nc1nc2ccccc2nc1OC(c1ccnc(N)c1)C(F)(F)F (stereo not shown) [Compound 45, N-(3-(1-(2-aminopyridin-4-yl)-2,2,2-trifluoroethoxy)quinoxalin-2-yl)propane-1-sulfonamide]	≥ 80%
CCCCS(=O)(=O)Nc1nc2ccccc2nc1OC(c1ccncc1)C(F)(F)F (stereo not shown) [Compound 46, N-(3-(2,2,2-trifluoro-1-(pyridin-4-yl)ethoxy)quinoxalin-2-yl)butane-1-sulfonamide]	≥ 80%
CCCCS(=O)(=O)Nc1nc2ccccc2nc1OC(c1cc[n+]([O-])cc1)C(F)(F)F (stereo not shown) [Compound 47, 4-(1-(3-(butylsulfonamido)quinoxalin-2-yloxy)-2,2,2-trifluoroethyl)pyridine 1-oxide]	≥ 80%
CCCS(=O)(=O)Nc1nc2ccccc2nc1OC(c1ccc2c(c1)OCCO2)C(F)(F)F (stereo not shown) [Compound 48, N-(3-(1-(2,3-dihydrobenzo[b][1,4]dioxin-6-yl)-2,2,2-trifluoroethoxy)quinoxalin-2-yl)propane-1-sulfonamide]	≥ 80%
CCCS(=O)(=O)Nc1nc2ccccc2nc1OC(c1ccnc(N(C)C(C)=O)c1)C(F)(F)F (stereo not shown) [Compound 49, N-methyl-N-(4-(2,2,2-trifluoro-1-(3-(propylsulfonamido)quinoxalin-2-yloxy)ethyl)pyridin-2-yl)acetamide]	≥ 80%
O=S(=O)(CC1CC1)Nc1nc2ccccc2nc1OC(c1ccncc1)C(F)(F)F (stereo not shown) [Compound 50, 1-cyclopropyl-N-(3-(2,2,2-trifluoro-1-(pyridin-4-yl)ethoxy)quinoxalin-2-yl)methanesulfonamide]	≥ 80%
CC(C)CS(=O)(=O)Nc1nc2ccccc2nc1OC(c1ccncc1)C(F)(F)F (stereo not shown) [Compound 51, 2-methyl-N-(3-(2,2,2-trifluoro-1-(pyridin-4-yl)ethoxy)quinoxalin-2-yl)propane-1-sulfonamide]	≥ 80%
CCCCS(=O)(=O)Nc1nc2ccccc2nc1OC(c1ccnc(C#N)c1)C(F)(F)F (stereo not shown) [Compound 52, N-(3-(1-(2-cyanopyridin-4-yl)-2,2,2-trifluoroethoxy)quinoxalin-2-yl)butane-1-sulfonamide]	≥ 80%
CCCS(=O)(=O)Nc1nc2ccccc2nc1OC(c1ccn2cc(C)nc2c1)C(F)(F)F (stereo not shown) [Compound 53, N-(3-(2,2,2-trifluoro-1-(2-methylimidazo[1,2-a]pyridin-7-yl)ethoxy)quinoxalin-2-yl)propane-1-sulfonamide]	≥ 80%
CCCS(=O)(=O)Nc1nc2ccccc2nc1OC(c1ccnc(-n2ccnc2)c1)C(F)(F)F (stereo not shown) [Compound 54, N-(3-(1-(2-(1H-imidazol-1-yl)pyridin-4-yl)-2,2,2-trifluoroethoxy)quinoxalin-2-yl)propane-1-sulfonamide]	≥ 80%
CCCS(=O)(=O)Nc1nc2ccccc2nc1OC(c1cnc(SC)nc1)C(F)(F)F (stereo not shown) [Compound 55, N-(3-(2,2,2-trifluoro-1-(2-(methylthio)pyrimidin-5-yl)ethoxy)quinoxalin-2-yl)propane-1-sulfonamide]	≥ 80%
CCCS(=O)(=O)Nc1nc2ccccc2nc1OC(c1ccc(-c2cnn(C)n2)nc1)C(F)(F)F (stereo not shown) [Compound 64A, N-(3-(2,2,2-trifluoro-1-(6-(2-methyl-2H-1,2,3-triazol-4-yl)pyridin-3-yl)ethoxy)quinoxalin-2-yl)propane-1-sulfonamide]	≥ 80%
CCCS(=O)(=O)Nc1nc2ccccc2nc1OC(c1ccc(-c2cnco2)nc1)C(F)(F)F (stereo not shown) [Compound 65, N-(3-(2,2,2-trifluoro-1-(6-(oxazol-5-yl)pyridin-3-yl)ethoxy)quinoxalin-2-yl)propane-1-sulfonamide]	≥ 80%
CCCS(=O)(=O)Nc1nc2ccccc2nc1OC(c1ccc(-c2noc(C)n2)nc1)C(F)(F)F (stereo not shown) [Compound 66, N-(3-(2,2,2-trifluoro-1-(6-(5-methyl-1,2,4-oxadiazol-3-yl)pyridin-3-yl)ethoxy)quinoxalin-2-yl)propane-1-sulfonamide]	≥ 80%
COCCS(=O)(=O)Nc1nc2ccccc2nc1OC(c1ccc(-c2ccnn2C)nc1)C(F)(F)F (stereo not shown) [Compound 67, 2-methoxy-N-(3-(2,2,2-trifluoro-1-(6-(1-methyl-1H-pyrazol-5-yl)pyridin-3-yl)ethoxy)quinoxalin-2-yl)ethanesulfonamide]	≥ 80%
COCCS(=O)(=O)Nc1nc2ccccc2nc1OC(c1ccc(-c2cnn(C)n2)nc1)C(F)(F)F (stereo not shown) [Compound 68A, 2-methoxy-N-(3-(2,2,2-trifluoro-1-(6-(2-methyl-2H-1,2,3-triazol-4-yl)pyridin-3-yl)ethoxy)quinoxalin-2-yl)ethanesulfonamide]	≥ 80%
COCCS(=O)(=O)Nc1nc2ccccc2nc1OC(c1ccc(-n2ccnc2C)nc1)C(F)(F)F (stereo not shown) [Compound 69, 2-methoxy-N-(3-(2,2,2-trifluoro-1-(6-(2-methyl-1H-imidazol-1-yl)pyridin-3-yl)ethoxy)quinoxalin-2-yl)ethanesulfonamide]	≥ 80%
CCCS(=O)(=O)Nc1nc2ccccc2nc1OC(c1cnc(C)n1C)C(F)(F)F (stereo not shown) [Compound 70, N-(3-(1-(1,2-dimethyl-1H-imidazol-5-yl)-2,2,2-trifluoroethoxy)quinoxalin-2-yl)propane-1-sulfonamide]	≥ 80%
CCCS(=O)(=O)Nc1nc2ccccc2nc1OC(c1cnc(C(C)=O)s1)C(F)(F)F (stereo not shown) [Compound 71, N-(3-(1-(2-acetylthiazol-5-yl)-2,2,2-trifluoroethoxy)quinoxalin-2-yl)propane-1-sulfonamide]	≥ 80%
COCCS(=O)(=O)Nc1nc2ccccc2nc1OC(c1ccnc(C(C)=O)c1)C(F)(F)F (stereo not shown) [Compound 72, N-(3-(1-(2-acetylpyridin-4-yl)-2,2,2-trifluoroethoxy)quinoxalin-2-yl)-2-methoxyethanesulfonamide]	≥ 80%
COCCS(=O)(=O)Nc1nc2ccccc2nc1OC(c1ccc(-c2cnco2)nc1)C(F)(F)F (stereo not shown) [Compound 73, 2-methoxy-N-(3-(2,2,2-trifluoro-1-(6-(oxazol-5-yl)pyridin-3-yl)ethoxy)quinoxalin-2-yl)ethanesulfonamide]	≥ 80%
COCCS(=O)(=O)Nc1nc2ccccc2nc1OC(c1cnc(C(C)=O)s1)C(F)(F)F (stereo not shown) [Compound 74, N-(3-(1-(2-acetylthiazol-5-yl)-2,2,2-trifluoroethoxy)quinoxalin-2-yl)-2-methoxyethanesulfonamide]	≥ 80%
CCCS(=O)(=O)Nc1nc2cc(I)ccc2nc1OC(c1cccnc1)C(F)(F)F (stereo not shown) [Compound 77, N-(7-iodo-3-(2,2,2-trifluoro-1-(pyridin-3-yl)ethoxy)quinoxalin-2-yl)propane-1-sulfonamide]	≥ 80%
CCCS(=O)(=O)Nc1nc2cc(C#N)ccc2nc1OC(c1cccnc1)C(F)(F)F (stereo not shown) [Compound 78, N-(7-cyano-3-(2,2,2-trifluoro-1-(pyridin-3-yl)ethoxy)quinoxalin-2-yl)propane-1-sulfonamide]	≥ 80%
C#Cc1ccc2nc(OC(c3cccnc3)C(F)(F)F)c(NS(=O)(=O)CCC)nc2c1 (stereo not shown) [Compound 79, N-(7-ethynyl-3-(2,2,2-trifluoro-1-(pyridin-3-yl)ethoxy)quinoxalin-2-yl)propane-1-sulfonamide]	≥ 80%
